Experiments:
PC-3V cells = assay: Transepithelial electric resistance (TER); assay type: cell-based; conditions: 50 nM CT
Procedure: (§1) Cells were plated on Transwell filters (0.4 μm pore size) and grown to confluency in complete medium (RPMI1640 containing 10% fetal bovine serum, 20 mM HEPES and antibiotics). TER of the cultures (in duplicate wells) was measured at several time intervals with EVOM volt-ohm meter as previously described (Shah et al, 2009). The readings were corrected for blank (TER values from the filter in bathing medium). The integrity and cell density of monolayers were carefully monitored.
(§2) To examine the effect of calcitonin (CT) on tight junctions (TJs), the transepithelial electric resistance (TER) of polarized PC-3 cells expressing either the vector (PC-3V), CTRwt or CTRΔESS was monitored for 8 hours after CT stimulation (FIG. 2A). Polarized PC-3V, PC-3 CTRwt and PC-3 CTR-ΔESS cells were serum-starved for 4 hours, then treated with or without 50 nM CT. TER was measured with EVOM volt-ohm meter, and results expressed as Ωcm^2±SEM (n=6). […] Since PC-3 cells secrete CT, the expression of CTRwt may have activated CT-CTR axis causing almost 40% reduction of TER in PC-3CTRwt cells.

PC-3CTRΔESS cells = assay: Transepithelial electric resistance (TER); assay type: cell-based
Procedure: as §1, §2

[1] = test system: calcitonin receptor (CTR); assay: cAMP accumulation (radioimmunoassay) in PC-3 CTRwt and PC-3 CTRΔESS cells; assay type: cell-based, human; conditions: 3 min
Chain of calcitonin receptor (CTR) (P30988 25-470 limits assumed): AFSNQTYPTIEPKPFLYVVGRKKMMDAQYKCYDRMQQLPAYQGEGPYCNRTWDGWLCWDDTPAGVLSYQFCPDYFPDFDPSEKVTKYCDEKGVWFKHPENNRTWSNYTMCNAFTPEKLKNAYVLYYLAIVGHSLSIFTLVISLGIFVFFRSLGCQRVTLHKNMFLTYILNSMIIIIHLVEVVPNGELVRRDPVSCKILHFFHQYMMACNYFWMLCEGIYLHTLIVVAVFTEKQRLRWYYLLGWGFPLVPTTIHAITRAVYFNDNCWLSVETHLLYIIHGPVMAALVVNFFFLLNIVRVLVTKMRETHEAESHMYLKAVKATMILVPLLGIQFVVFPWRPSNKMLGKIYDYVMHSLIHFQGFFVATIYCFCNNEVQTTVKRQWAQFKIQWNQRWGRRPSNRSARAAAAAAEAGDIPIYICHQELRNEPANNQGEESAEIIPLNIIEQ
Procedure: PC-3CTRwt and PC-3CTRΔESS cells were treated with/without 50 nM CT for three min, washed and harvested in lysis buffer (50 mM Tris, pH 7.5, containing 5 mM EDTA, 50 mM NaF, 1 mM sodium pyrophosphate, 0.5 mM EGTA, 10 mM β-mercaptoethanol, leupeptin, 1 μg/ml; and aprotinin, 1 μg/ml). The lysates were analyzed for cAMP levels by radioimmunoassay (Perkin Elmer, Shelton, Conn.).
FIG. 1C depicts photomicrographs showing CTRwt and CTRΔESS (a mutant) localized to the plasma membrane (at 400×) in PC-3 cells. To examine the ability of CTRwt and CTRΔESS to activate its G protein-coupled effectors, the effect of 50 nM CT was examined on cAMP accumulation and PKA and PKC activity. […] FIG. 1D depicts the effect of 50 nM CT on cAMP accumulation in PC-3 CTRwt and PC-3 CTRΔESS cells stimulated with or without 50 nM CT for 3 min. The cells were lysed, and the lysates were analyzed for cAMP levels by radioimmunoassay (*p<0.01 (paired t-test)).
The effect of CT on cAMP was further tested in a dose-response study where the response to CT at multiple doses (between 0-100 nM) was examined. FIG. 1G depicts cAMP accumulation in PC-3 CTR and PC-3 CTRΔESS cells in response to CT at multiple doses (between 0-100 nM) stimulated for 3 min (*p<0.01 (One-way ANOVA and Newman-Keuls test)).

[2] = test system: ZO-1, claudin-3 and occludin; assay: Subcellular distribution of TJ proteins (immunofluorescence, TX-100 soluble/insoluble fractions); assay type: cell-based
Procedure: Approximately 1×10^4 cells were grown to confluence on 0.4 μm 12-well Transwell™ filters (Costar, Mass.). After overnight serum starvation, cells were treated with or without 50 nM CT for 60 min, fixed with methanol and incubated with primary antisera (rabbit anti-ZO-1 IgG, Zymed, Calrsbad, Calif.; Claudin-3, CTR-FLAG). Immunostaining was visualized after incubation with TRITC-labelled secondary antibody (1:500). Controls with either non-immune goat IgG or no primary antisera were used in all studies. Digital photographs were taken with Retiga 1300 camera connected to a Nikon Optiphot-2 microscope equipped for epifluorescence, the images were captured at different wavelengths for TRITC and DAPI, were given red and blue pseudo colors respectively, and analyzed using IP Lab™ image analysis program.
Confluent 100 mm plates of each PC sublines were serum starved overnight, and treated with or without 50 nM CT for various periods. Soluble extract (cytosolic) was obtained by incubating cells with 10 mM Tris-HCl, pH-7.4 (containing 150 mM NaCl, 2 mM CaCl2, protease-phosphatase inhibitors cocktail, 1% Nonidet P-40 and 1% Triton-X-100) for 30 min with occasional agitation. After washing the plates with TBS (containing protease inhibitors), the insoluble fraction (plasma membrane-associated) was scraped out from the plates with TBS containing 0.5% SDS, 1% Nonidet P-40, protease inhibitors. The triton X-100-insoluble fraction was collected after homogenizing and centrifuging at 14,000×g for 5 min at 4 C, and protein content of the supernatants was determined using Bio-Rad Reagent (Bio-Rad, Hercules, Calif.).
The lysate fractions were boiled for 5 min in 2× Laemmli buffer. The proteins were fractionated by SDS-PAGE electrophoresis, and electrically transferred to a nitrocellulose membrane. The blots were incubated the appropriate antisera followed by HRP-conjugated secondary antibody; and the blots were developed with ECL. To control for protein loading and transfer, the blots were stripped, and reprobed with either β-actin (insoluble) or α-tubulin (soluble) antibody. The same experiment was repeated two more times.
To test whether CT-mediated loss of TJ functionality is caused by disassembly of TJs, subcellular distribution of key TJ proteins was examined. Polarized PC-3CTRwt cells were treated with 50 nM CT for 30 min, and then processed for immunofluorescence with anti-FLAG (CTR), anti-ZO-1 and anti-claudin-3 antibodies.
It is known that junctional proteins are functional only when they are at cell-cell contacts on the membrane (Shin et al., 2006). Therefore, the subcellular distribution of TJ proteins was analyzed by immunoblotting TX-soluble (cytoplasmic) and TX-insoluble (membrane) fractions of cell lysates. […] The endocytosis of TJ proteins was rapid, and increased progressively throughout the experimental period of four hours. Specifically, translocation of ZO-1 from the insoluble to the soluble compartment was quicker and observed within 1 min of CT stimulus. Similar translocation of occludin was observed after ten min, and that of claudin-3 after 30 min of CT stimulus.
To test whether specific PKA inhibitors abrogate CT-induced TJ disassembly, two specific, well-characterized PKA inhibitors, mPKI and H-89, were used. PC-3CTRwt cells were treated with CT (50 nM for 30 min) in the presence of mPKI (100 nM) or H-89 (10 μM). Either of these inhibitors was added 15 min prior to the addition of CT. […]

## calcitonin [CT]
PC-3V cells
  TER: did not alter it
PC-3CTRΔESS cells; 50 nM CT
  TER: did not affect TER
PC-3CTRΔESS cells; all CT concentrations
  TER at multiple CT concentrations: did not show any changes
[1]; 50 nM CT, PC-3 CTRwt and PC-3CTRΔESS cells
  cAMP accumulation: stimulated cAMP production
[1]; CT 0-100 nM, CTRwt and CTRΔESS cells, all doses
  cAMP accumulation, dose-response: significantly increased
[2]; CT 50 nM
  time to translocation of ZO-1: ≤ 1 min
  time to translocation of claudin-3: 30 min
  time to translocation of occludin: after ten min
[2]; PC-3CTRwt cells, 50 nM CT, 30 min
  localization of CTR, ZO-1 and claudin-3 (immunofluorescence): loss of these proteins at cell-cell contacts and their internalization
[2]; cells expressing CTRΔESS or ZO-1ΔPDZ3, CT 50 nM
  endocytosis of ZO-1, claudin 3 or occludin: could not induce endocytosis

From patent US9765115B2, “Inhibitors of metastasis, methods of generating such inhibitors and their therapeutic applications” (Board of Supervisors of Louisiana State University acting …, priority 2011, dated 2017)
